Each structure is given as a SMILES string.

This assay concerns the target T1, Lsd18 (Streptomyces lasalocidi, UniProt B5M9L6).
T1 construct: recombinant Lsd18 with FAD; two molecules in the asymmetric unit
In words: LC-MS epoxidation assay. The class given is biochemical. The conditions noted are these: forms mono- and bisepoxide.

T1 sequence (B5M9L6 whole entry): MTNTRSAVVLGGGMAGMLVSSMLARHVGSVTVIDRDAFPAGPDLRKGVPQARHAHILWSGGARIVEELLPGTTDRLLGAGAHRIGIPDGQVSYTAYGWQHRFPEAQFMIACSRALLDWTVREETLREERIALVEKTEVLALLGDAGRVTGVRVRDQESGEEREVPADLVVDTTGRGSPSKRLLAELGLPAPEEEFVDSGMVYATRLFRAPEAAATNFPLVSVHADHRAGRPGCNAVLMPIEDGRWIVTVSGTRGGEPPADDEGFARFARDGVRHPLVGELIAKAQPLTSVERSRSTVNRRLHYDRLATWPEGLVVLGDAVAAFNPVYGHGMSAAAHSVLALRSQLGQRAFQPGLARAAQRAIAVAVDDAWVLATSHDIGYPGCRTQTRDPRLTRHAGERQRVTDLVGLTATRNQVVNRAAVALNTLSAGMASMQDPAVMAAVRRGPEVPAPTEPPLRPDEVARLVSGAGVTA

Regarding `CC(=O)OC/C=C(\C)CC/C=C(\C)CCC=C(C)C` [farnesyl acetate], the LC-MS epoxidation assay entry was “Lsd18 transforms farnesyl acetate, a natural sesquiterpene, into a bisepoxide”.

The values are drawn from paper PMC12144862, “Structural Basis of Sequential Enantioselective Epoxidation by a Flavin-Dependent Monooxygenase in Lasalocid A Biosynthesis” (Angewandte Chemie (International ed. in English), 2025).
